Results from US10035785B2, “Phosphoinositide 3-kinase inhibitors” (Karus Therapeutics Limited, priority 2012, dated 2018).

Legend:
PI3K-p110α = PI3K-p110α (Homo sapiens, UniProt P42336); test: Biochemical data, PI3K binding potency, PI3K-p110α
Text: (§1) The following biochemical data have been generated for the exemplified compounds, showing PI3K binding potency.

PI3K-p110β = PI3K-p110β (Homo sapiens, UniProt P42338); test: Biochemical data, PI3K binding potency, PI3K-p110β
Text: as §1

PI3K-p110δ = PI3K-p110δ (Homo sapiens, UniProt O00329); test: Biochemical data, PI3K binding potency, PI3K-p110δ
PI3K-p110δ, sequence (O00329 whole entry): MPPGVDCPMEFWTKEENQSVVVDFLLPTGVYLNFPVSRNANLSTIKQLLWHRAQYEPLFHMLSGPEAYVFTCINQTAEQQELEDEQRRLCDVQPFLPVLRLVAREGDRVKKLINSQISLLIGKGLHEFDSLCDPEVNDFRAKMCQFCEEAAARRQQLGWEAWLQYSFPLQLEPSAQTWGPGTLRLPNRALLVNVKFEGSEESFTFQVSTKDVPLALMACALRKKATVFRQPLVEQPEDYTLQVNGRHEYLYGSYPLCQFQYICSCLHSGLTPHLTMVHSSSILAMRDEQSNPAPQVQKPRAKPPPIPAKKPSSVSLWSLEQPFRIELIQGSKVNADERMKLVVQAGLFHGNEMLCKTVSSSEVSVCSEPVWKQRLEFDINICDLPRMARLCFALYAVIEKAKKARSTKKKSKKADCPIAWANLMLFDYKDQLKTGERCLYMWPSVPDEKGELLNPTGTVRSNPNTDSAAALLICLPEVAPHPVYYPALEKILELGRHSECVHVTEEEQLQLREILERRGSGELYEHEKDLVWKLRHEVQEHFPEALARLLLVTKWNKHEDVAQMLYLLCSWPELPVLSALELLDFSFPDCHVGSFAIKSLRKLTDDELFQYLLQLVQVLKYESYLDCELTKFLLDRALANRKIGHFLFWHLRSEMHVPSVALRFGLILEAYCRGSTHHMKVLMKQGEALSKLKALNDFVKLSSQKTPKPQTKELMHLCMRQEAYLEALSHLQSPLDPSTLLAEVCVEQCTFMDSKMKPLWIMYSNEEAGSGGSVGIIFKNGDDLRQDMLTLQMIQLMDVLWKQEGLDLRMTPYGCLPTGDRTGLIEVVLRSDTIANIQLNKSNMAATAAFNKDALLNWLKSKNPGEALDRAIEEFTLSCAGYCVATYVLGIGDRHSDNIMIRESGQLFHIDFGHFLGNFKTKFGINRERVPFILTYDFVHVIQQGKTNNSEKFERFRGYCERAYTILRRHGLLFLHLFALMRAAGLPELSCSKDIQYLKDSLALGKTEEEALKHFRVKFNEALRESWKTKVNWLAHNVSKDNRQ
PI3K-p110δ, sequence (P27986 whole entry partner): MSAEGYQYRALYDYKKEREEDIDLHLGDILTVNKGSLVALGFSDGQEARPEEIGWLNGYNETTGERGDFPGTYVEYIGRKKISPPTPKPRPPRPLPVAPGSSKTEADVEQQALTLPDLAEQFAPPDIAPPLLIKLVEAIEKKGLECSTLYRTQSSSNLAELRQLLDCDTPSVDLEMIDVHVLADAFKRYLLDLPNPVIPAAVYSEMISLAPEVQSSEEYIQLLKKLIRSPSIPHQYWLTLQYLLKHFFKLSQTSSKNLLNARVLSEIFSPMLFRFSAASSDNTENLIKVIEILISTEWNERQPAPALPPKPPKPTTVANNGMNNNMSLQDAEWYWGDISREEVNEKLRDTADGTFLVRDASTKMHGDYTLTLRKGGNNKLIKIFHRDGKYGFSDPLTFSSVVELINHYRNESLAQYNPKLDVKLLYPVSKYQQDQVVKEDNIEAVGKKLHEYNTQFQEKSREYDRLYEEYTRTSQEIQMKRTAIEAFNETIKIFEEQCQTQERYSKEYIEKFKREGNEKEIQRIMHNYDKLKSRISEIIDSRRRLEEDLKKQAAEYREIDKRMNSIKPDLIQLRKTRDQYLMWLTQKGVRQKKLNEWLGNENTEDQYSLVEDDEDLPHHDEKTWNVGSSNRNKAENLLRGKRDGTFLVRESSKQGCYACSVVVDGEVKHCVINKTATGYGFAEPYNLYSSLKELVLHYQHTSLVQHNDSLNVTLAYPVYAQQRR
Text: as §1

PI3K-p110γ = PI3K-p110γ (Homo sapiens, UniProt P48736); test: Biochemical data, PI3K binding potency, PI3K-p110γ
PI3K-p110γ, sequence (P48736 whole entry): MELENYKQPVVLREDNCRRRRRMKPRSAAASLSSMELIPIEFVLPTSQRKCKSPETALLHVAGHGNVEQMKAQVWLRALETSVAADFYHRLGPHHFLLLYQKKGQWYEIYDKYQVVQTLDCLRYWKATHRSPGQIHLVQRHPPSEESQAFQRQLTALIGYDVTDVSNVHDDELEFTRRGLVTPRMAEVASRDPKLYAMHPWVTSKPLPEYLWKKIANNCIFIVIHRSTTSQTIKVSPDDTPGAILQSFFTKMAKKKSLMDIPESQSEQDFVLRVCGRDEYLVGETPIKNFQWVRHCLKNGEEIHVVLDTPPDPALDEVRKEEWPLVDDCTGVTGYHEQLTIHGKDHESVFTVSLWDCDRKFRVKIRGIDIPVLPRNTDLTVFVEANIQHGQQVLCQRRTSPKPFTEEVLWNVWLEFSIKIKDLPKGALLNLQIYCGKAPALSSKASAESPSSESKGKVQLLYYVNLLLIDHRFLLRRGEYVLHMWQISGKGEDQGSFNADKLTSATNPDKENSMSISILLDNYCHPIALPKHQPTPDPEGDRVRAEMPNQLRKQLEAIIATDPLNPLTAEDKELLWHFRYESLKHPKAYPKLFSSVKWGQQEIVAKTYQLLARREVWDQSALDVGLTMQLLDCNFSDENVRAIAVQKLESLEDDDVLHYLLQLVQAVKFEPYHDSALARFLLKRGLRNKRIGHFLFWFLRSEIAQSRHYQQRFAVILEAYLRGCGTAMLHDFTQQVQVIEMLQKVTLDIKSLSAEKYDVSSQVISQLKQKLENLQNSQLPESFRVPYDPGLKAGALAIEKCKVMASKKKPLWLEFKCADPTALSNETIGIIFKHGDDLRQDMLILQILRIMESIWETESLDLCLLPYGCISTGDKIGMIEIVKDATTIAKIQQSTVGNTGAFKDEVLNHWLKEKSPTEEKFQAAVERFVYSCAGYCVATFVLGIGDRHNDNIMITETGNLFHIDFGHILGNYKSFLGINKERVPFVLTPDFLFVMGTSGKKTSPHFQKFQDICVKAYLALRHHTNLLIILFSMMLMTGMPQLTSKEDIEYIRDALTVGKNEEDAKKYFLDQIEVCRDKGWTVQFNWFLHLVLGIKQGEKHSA
Text: as §1

PI3K-p110α, sequence (P42336 whole entry): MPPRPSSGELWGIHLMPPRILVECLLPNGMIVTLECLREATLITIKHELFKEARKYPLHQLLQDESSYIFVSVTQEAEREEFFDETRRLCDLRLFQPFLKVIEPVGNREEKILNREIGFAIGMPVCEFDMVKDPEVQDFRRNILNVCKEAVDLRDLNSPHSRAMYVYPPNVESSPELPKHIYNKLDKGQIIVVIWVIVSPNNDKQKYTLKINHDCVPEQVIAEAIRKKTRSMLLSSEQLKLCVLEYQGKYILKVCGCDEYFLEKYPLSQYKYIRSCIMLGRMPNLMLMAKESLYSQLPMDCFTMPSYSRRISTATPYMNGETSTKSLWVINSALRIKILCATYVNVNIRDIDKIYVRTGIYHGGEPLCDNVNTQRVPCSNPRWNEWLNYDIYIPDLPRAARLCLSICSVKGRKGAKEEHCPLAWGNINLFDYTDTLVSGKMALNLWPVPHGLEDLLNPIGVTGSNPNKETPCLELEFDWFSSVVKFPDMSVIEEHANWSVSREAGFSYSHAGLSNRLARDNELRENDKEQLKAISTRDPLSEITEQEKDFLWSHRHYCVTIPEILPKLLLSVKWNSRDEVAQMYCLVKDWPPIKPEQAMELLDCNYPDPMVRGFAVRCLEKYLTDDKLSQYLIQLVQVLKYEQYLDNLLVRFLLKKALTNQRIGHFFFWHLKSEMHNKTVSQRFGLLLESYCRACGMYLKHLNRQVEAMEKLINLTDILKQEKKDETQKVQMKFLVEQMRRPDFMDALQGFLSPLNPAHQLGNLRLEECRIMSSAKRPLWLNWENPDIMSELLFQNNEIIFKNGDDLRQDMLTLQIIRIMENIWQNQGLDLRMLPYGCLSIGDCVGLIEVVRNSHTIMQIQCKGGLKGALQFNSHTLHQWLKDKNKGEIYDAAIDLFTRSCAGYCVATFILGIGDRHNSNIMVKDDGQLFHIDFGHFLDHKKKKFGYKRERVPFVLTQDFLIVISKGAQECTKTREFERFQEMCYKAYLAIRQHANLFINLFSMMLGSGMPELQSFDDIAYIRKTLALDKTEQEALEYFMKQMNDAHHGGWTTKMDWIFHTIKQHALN
PI3K-p110α, sequence (P27986 whole entry partner): as the sequence (P27986 whole entry partner) above
PI3K-p110β, sequence (P42338 whole entry): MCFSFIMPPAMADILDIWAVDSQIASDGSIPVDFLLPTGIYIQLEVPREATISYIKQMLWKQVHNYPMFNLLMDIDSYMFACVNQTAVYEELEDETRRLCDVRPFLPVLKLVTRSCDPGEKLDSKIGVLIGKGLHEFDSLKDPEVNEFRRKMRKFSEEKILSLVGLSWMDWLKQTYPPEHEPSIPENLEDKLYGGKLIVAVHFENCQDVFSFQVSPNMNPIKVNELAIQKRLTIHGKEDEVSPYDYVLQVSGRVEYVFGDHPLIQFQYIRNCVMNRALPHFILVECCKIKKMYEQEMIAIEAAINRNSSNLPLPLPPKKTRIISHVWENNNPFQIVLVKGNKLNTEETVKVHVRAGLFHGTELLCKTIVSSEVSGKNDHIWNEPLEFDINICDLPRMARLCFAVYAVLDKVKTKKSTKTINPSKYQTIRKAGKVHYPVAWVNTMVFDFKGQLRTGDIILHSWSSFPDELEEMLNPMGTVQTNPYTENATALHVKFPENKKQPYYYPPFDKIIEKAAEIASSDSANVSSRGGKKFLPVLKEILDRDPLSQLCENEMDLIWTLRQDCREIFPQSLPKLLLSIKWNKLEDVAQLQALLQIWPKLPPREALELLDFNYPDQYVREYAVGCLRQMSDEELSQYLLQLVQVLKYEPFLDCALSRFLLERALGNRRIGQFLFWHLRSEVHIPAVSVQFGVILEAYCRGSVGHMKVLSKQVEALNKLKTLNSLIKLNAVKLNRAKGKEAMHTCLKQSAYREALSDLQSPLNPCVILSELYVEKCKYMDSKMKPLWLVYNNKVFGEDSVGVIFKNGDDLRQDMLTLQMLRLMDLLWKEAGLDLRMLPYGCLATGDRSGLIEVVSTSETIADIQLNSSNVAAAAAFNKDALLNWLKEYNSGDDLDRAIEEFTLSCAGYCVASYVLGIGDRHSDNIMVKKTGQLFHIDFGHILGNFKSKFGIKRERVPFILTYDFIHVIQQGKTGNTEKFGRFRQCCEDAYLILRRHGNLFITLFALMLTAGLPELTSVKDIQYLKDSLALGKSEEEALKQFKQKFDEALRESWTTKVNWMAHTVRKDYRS
PI3K-p110β, sequence (P27986 whole entry partner): as the sequence (P27986 whole entry partner) above

Row | IC50 (PI3K-p110α) [nM] | IC50 (PI3K-p110β) [nM] | IC50 (PI3K-p110δ) [nM] | IC50 (PI3K-p110γ) [nM] | Structure (SMILES)
1 | ≥ 10000 | 247 | 177 | ≥ 10000 | CN(C)CCCC(=O)Nc1cc(-c2cccc3[nH]ccc23)nc(N2CCOCC2)c1 [B, 4-Dimethylamino-N-[2-(1H-indol-4-yl)-6-morpholin-4-yl-pyridin-4-yl]-butyramide]
2 |  |  | 953 |  | O=C(CCCN1CCCC1)Nc1cc(-c2cccc3[nH]ccc23)nc(N2CCOCC2)c1 [C, N-[2-(1H-Indol-4-yl)-6-morpholin-4-yl-pyridin-4-yl]-4-pyrrolidin-1-yl-butyramide]
